Measured values published in patent publication US10358448B2, “Therapeutic compounds for pain and synthesis thereof” (priority 2015, dated 2019).
Values joined by “and” are separate entries in the source; they are usually repeats but may differ in a detail not shown here. Equal values may be shown once.

What was measured:
[1] = test system: Taxol model of neuropathic pain; test: Taxol animal model for neuropathic pain in mice; format: in vivo
Source text: (§1) Table 7 summarizes the activity of Formula 1 in mice models of neuropathic pain following repeated daily administration using different routes of administration.

[2] = test system: CCl model of neuropathic pain; test: CCl animal model for neuropathic pain in mice; format: in vivo; settings: SC, 150 mg/kg, repeated daily administration
Source text: as §1

[3] = PO, 30 mg/kg, repeated daily administration
[4] = SC, doses tested 1, 3, 10 mg/kg, repeated daily administration

| Compound | Duration of activity at maximum effect [1, 3] | Level of activity (% of maximum effect-baseline) [1, 3] | Peak of activity (T) [1, 3] | Dose of maximum activity ([1]; PO, dose tested 30 mg/kg) | Dose of maximum activity ([1]; SC, doses tested 1, 3, 10 mg/kg) | Duration of activity at maximum effect [1, 4] | Level of activity (% of maximum effect-baseline) [1, 4] | Duration of activity at maximum effect [2] | Level of activity (% of maximum effect-baseline) [2] | Peak of activity (T) [2] |
| --- | --- | --- | --- | --- | --- | --- | --- | --- | --- | --- |
| CC(C)(C)C(=O)O[C@@H]1C2[C@H]3C[C@H](C[C@@H]1N3CC1CC1)CN2C(=O)CC(F)(F)F (stereo partly drawn) [Formula 1, (2S,3S,6R,7aR)-1-(cyclopropylmethyl)-4-(3,3,3-trifluoropropanoyl)octahydro-1H-2,6-methanopyrrolo[3,2-b]pyridin-3-yl pivalate] | 3 days | 100% | 1-24 H | <30 mg/kg | 1 mg/kg | 3 days | 100% |  |  |  |
| NCC1(CC(=O)O)CCCCC1 [Gabapentin] |  |  |  |  |  |  |  | 4-6 H | >100% and 64% | 2-3 H |
